Data as given in PMC10041537, “Molecular origins of mutational spectra produced by the environmental carcinogen N-nitrosodimethylamine and SN1 chemotherapeutic agents” (NAR Cancer, 2023).

Test system: liver, kidney, lung
Assay: Body and organ weights, macroscopic and histological analysis 10 weeks post NDMA treatment
Type: in vivo, gptΔ C57BL/6J mice
Experimental: Most experiments utilized C57BL/6J gptΔ transgenic mice ([49],[50]), a gift from T. Nohmi. Some experiments used RaDR^R/R;gpt^g/g;Mgmt^−/− mice, which were created by crossing RaDR^R/R;gpt^g/gmice ([37]) with Mgmt^−/− mice ([51]). NDMA was synthesized and characterized as previously described ([52]) (Fig. S1). […] The first dose (3.5 mg/kg in 10 μl) was administered at 8 days of age, and the second dose (7 mg/kg in 20 μl) was administered at 15 days of age. Vehicle treated mice were administered equivalent volumes of saline. Mice were euthanized at ten weeks post-injection by CO2 inhalation. Both male and female mice were used in all experimental groups (n = 5) in all mouse experiments.
Sections of kidney and liver from mice ten weeks post treatment were fixed in 10% buffered formalin, embedded in paraffin, and sectioned at 5 μm thickness, stained with hematoxylin and eosin (H&E) by the MIT Division of Comparative Medicine Comparative Pathology Laboratory. H&E-stained sections of liver and kidney were scored by a Board-certified veterinary pathologist blinded to sample identity. Sections of liver were evaluated for the presence of hepatocellular degeneration (cell swelling with cytoplasmic alteration), fibrosis, and lipidosis using distribution-based ordinal scoring: 0 = normal, 1, uncommon detection in < 5% of liver fields (200×); 2, detectable in up to 5–20% of liver fields; 3, detectable in up to 20–65% of liver fields; 4, detectable in >65% of liver fields. The following criteria were used for scoring hepatic inflammation, necrosis, nuclear enlargement (karyomegaly), extramedullary hematopoiesis, Kupffer cell hyperplasia, Ito cell hyperplasia, and bile duct hyperplasia: 0 = normal; 1 = minimal (1–5 foci), 2 = mild (6–12 foci), 3 = moderate (13–18 foci), 4 = severe (>18 foci) (adapted from ([54])). A total inflammation score for each liver was generated by combining individual scores of portal, midzonal, and centrilobular inflammation from each submitted section. Sections of kidney were evaluated for the presence of inflammation, glomerulonephropathy, tubular necrosis, tubular degeneration, tubular regeneration, tubular casts and interstitial fibrosis. Slides were examined using an Olympus BX41 microscope attached with an iKona digital camera and photographed.

CN(C)N=O [NDMA, N-nitrosodimethylamine]
macroscopic changes in organs (10 weeks post treatment): not observed
liver histology: hepatocellular degeneration (H&E, P = 0.0079): multifocal areas of periacinar (centrilobular to midzonal) hepatocellular degeneration
liver histology: nuclear enlargement (H&E, P = 0.0079): karyomegaly
body weights vs vehicle controls (at euthanasia, 10 weeks post treatment): no difference
lung-to-body weight ratio (females): increased
kidney-to-body weight ratio (males): increased
liver-to-body weight ratio (males): decreased significantly
